Assay results taken from BigSolDB 2.1.

CCc1cc(C(N)=S)ccn1
solubility (mole fraction)
Conditions | 278.15 K | 283.15 K | 288.15 K | 293.15 K | 298.15 K | 303.15 K | 308.15 K | 313.15 K | 318.15 K | 323.15 K
in acetone | – | 0.00695 | 0.00799 | 0.00925 | 0.0109 | 0.0124 | 0.0148 | 0.0172 | 0.0194 | 0.0226
in ethanol | 0.00464 | 0.00566 | 0.00695 | 0.00835 | 0.00993 | 0.012 | 0.0134 | 0.0161 | 0.0192 | 0.0228
in ethyl acetate | 0.00874 | 0.0102 | 0.0122 | 0.0144 | 0.0171 | 0.0199 | 0.0231 | 0.0265 | 0.0312 | 0.0381
in isopropanol | 0.00292 | 0.00334 | 0.0042 | 0.00507 | 0.00642 | 0.00805 | 0.0096 | 0.0115 | 0.0143 | 0.018
in methanol | 0.00534 | 0.0063 | 0.0074 | 0.00919 | 0.0112 | 0.013 | 0.0159 | 0.018 | 0.0215 | 0.0256
in n-propanol | 0.00381 | 0.00464 | 0.00562 | 0.00719 | 0.00862 | 0.0103 | 0.0128 | 0.0159 | 0.0192 | 0.0231
